Tests used:
[1] = system: anti-LSD antibody G651; assay: ELISA microtiter plate assay, plate coated with LSD-BSA label-conjugate 21, antiserum G651; settings: conjugate 21 coating, 405 nm, FIG. 3
[2] = system: anti-LSD antibody G648; assay: ELISA microtiter plate assay, plate coated with LSD-BSA label-conjugate 21, antiserum G648; settings: conjugate 21 coating, 405 nm, FIG. 3
[3] = system: anti-LSD antibody G651; assay: ELISA microtiter plate assay, plate coated with LSD-BSA label-conjugate 14, antiserum G651; format: binding, goats; settings: for G651(OD): conjugate 14 coating, 405 nm
Method: (§1) The novel reagents were tested in an ELISA immunoassay as described in Example 27. The N-indole derived LSD-BSA label-conjugate 14 containing the biphenyl linker was used to compete against known concentrations of LSD for binding to the anti-LSD antibodies, G648 and G651, raised against the LSD immunogen 8.
FIG. 2 provides the curve generated from an ELISA microtiter plate assay, as described in Example 27, using nor-LSD as the standard.

[4] = light; pH above 7 epimerization at C-8 to iso-LSD; prolonged light oxidation at C-9; cited from earlier work
[5] = system: anti-LSD antibody G648; assay: ELISA microtiter plate assay, plate coated with LSD-BSA label-conjugate 14, antiserum G648; format: binding, goats; settings: for G648(OD): conjugate 14 coating, 405 nm, FIG. 1
Method: as §1

[6] = system: LSD antibodies; settings: prior-art antibodies, Van Vunakis 1971; cited from earlier work

## CCN(CC)C(=O)[C@@H]1C=C2c3cccc4[nH]cc(c34)C[C@H]2N(C)C1 [LSD, D-lysergic acid diethyl amide]
[1]; 0.5 ng/mL free LSD
  G651(OD): 0.5 OD
[1]; 1 ng/mL free LSD
  G651(OD): 0.33 OD
[1]; 5 ng/mL free LSD
  G651(OD): 0.19 OD
[2]; 0.5 ng/mL free LSD
  G648(OD): 0.52 OD
[2]; 1 ng/mL free LSD
  G648(OD): 0.37 OD
[2]; 5 ng/mL free LSD
  G648(OD): 0.17 OD
[3]; 0.5 ng/mL free LSD, FIG. 1
  G651(OD): 1.05 OD
[3]; 1 ng/mL free LSD, FIG. 1
  G651(OD): 0.75 OD
[3]; 5 ng/mL free LSD, FIG. 1
  G651(OD): 0.39 OD
[3]; 5 ng/mL free drug, FIG. 2
  G651(OD): 0.63 OD
[4]
  stability: sensitive to light and alkaline pH
[5]; 0.5 ng/mL free LSD
  G648(OD): 0.8 OD
[5]; 1 ng/mL free LSD
  G648(OD): 0.33 OD
[5]; 5 ng/mL free LSD
  G648(OD): 0.25 OD

## C[C@@H](CO)NC(=O)[C@@H]1C=C2c3cccc4[nH]cc(c34)C[C@H]2N(C)C1 [ergonovine]
[6]
  competition for binding to the LSD antibodies (cross-reactivity): compete for binding

## CN1C[C@H](C(=O)N[C@]2(C)O[C@@]3(O)[C@@H]4CCCN4C(=O)[C@H](Cc4ccccc4)N3C2=O)C=C2c3cccc4[nH]cc(c34)C[C@H]21 [ergotamine]
[6]
  competition for binding to the LSD antibodies (cross-reactivity): compete for binding

## CC(C)C[C@H]1C(=O)N2CCC[C@H]2[C@]2(O)O[C@@](C)(NC(=O)[C@@H]3C=C4c5cccc6[nH]cc(c56)C[C@H]4N(C)C3)C(=O)N12 [ergosine]
[6]
  competition for binding to the LSD antibodies (cross-reactivity): compete for binding

## CC[C@@H](CO)NC(=O)[C@@H]1C=C2c3cccc4c3c(cn4C)C[C@H]2N(C)C1 [methysergide]
[6]
  competition for binding to the LSD antibodies (cross-reactivity): compete for binding

## CCN(CC)C(=O)[C@@H]1C=C2c3cccc4[nH]cc(c34)C[C@H]2NC1 [Nor-LSD, 8β-9,10-didehydro-N,N-diethylergoline-8-carboxamide]
[3]; 1 ng/mL free drug, FIG. 2
  G651(OD): 1.2 OD
[3]; 5 ng/mL free drug, FIG. 2
  G651(OD): 0.88 OD
[3]; in words
  binding of antibody G651 raised against immunogen 8: bind
[5]; in words
  binding of antibody G648 raised against immunogen 8: bind

Reference: US6476199B1, “Reagents for lysergic acid diethylamide immunoassay” (priority 1996, dated 2002)
